Measured values taken from ChEMBL document CHEMBL6177939, “The role of silicon in drug discovery: a review” (RSC Med Chem, 2024).
In brackets after ≈: the same amount, converted by molar mass.

Columns and labels:
Giardia intestinalis = test: Antiparasitic activity against Giardia intestinalis Portland 1 assessed as reduction in parasite growth incubated for 48 hrs by MTT assay; assay type: functional, organism-based; details: Giardia duodenalis, Portland 1, 48 h
Entamoeba histolytica = test: Antiparasitic activity against Entamoeba histolytica HM-1:IMSS assessed as reduction in parasite growth incubated for 48 hrs by MTT assay; assay type: functional, organism-based
[1] = test system: Mycobacterium tuberculosis; test: Antimycobacterial activity against Mycobacterium tuberculosis H37Rv assessed as inhibition of bacterial growth incubated for 24 hrs by alamar blue assay; assay type: functional
MCF7 = test: Cytotoxicity against human MCF7 cells assessed as reduction in cell viability by XTT assay; assay type: functional, cell-based
HepG2 [2] = test: Cytotoxicity against human HepG2 cells assessed as reduction in cell viability by XTT assay; assay type: functional, cell-based
Pseudomonas aeruginosa [3] = test: Antibacterial activity against Pseudomonas aeruginosa ATCC 27853 assessed as reduction in bacterial growth incubated for 24 hrs by CLSI micro-dilution method; assay type: functional
Penicillium chrysogenum = test: Antifungal activity against Penicillium chrysogenum ATCC 11709 assessed as reduction in fungal growth incubated for 24 hrs by CLSI micro-dilution method; assay type: functional
Fusarium solani = test: Antifungal activity against Fusarium solani ATCC 20327 assessed as reduction in fungal growth incubated for 24 hrs by CLSI micro-dilution method; assay type: functional
Aspergillus niger = test: Antifungal activity against Aspergillus niger ATCC 16888 assessed as reduction in fungal growth incubated for 24 hrs by broth micro-dilution method; assay type: functional
Bacillus sp. = test: Antibacterial activity against Bacillus sp. ATCC 19986 assessed as reduction in bacterial growth incubated for 24 hrs by CLSI micro-dilution method; assay type: functional; details: Bacillus sp. (in: firmicutes)
BJAB = test: Cytotoxicity against human BJAB cells assessed as lethal dose measured after 48 hrs; assay type: functional; details: read-out: LD50 (the source's name)
P388 = test: Antiproliferative activity against mouse P388 cells; assay type: functional, cell-based
HT-1080 = test: Cytotoxicity against human HT-1080 cells assessed as reduction in cell growth by MTT assay; assay type: functional, cell-based
MG-22A = test: Cytotoxicity against mouse MG-22A cells assessed as reduction in cell growth by MTT assay; assay type: functional, cell-based
Staphylococcus aureus = test: Antibacterial activity against Staphylococcus aureus ATCC 25923 assessed as reduction in cell growth incubated for 18 hrs by two-fold serial dilution method; assay type: functional
Acinetobacter baumannii = test: Antibacterial activity against Acinetobacter baumannii ATCC 19606 assessed as reduction in cell growth incubated for 18 hrs by two-fold serial dilution method; assay type: functional
Escherichia coli = test: Antibacterial activity against Escherichia coli ATCC 25922 assessed as reduction in cell growth incubated for 18 hrs by two-fold serial dilution method; assay type: functional
Pseudomonas aeruginosa [4] = test: Antibacterial activity against Pseudomonas aeruginosa ATCC 27853 assessed as reduction in cell growth incubated for 18 hrs by two-fold serial dilution method; assay type: functional
Aedes aegypti = test: […] activity against Aedes aegypti assessed as protection time at 0.5 microg/cm; assay type: functional
Acetylcholinesterase = Acetylcholinesterase (Homo sapiens, UniProt P22303); test: Inhibition of AChE (unknown origin) using acetylthiocholine iodide as substrate by Ellman's method
Sequence of Acetylcholinesterase (P22303 whole entry): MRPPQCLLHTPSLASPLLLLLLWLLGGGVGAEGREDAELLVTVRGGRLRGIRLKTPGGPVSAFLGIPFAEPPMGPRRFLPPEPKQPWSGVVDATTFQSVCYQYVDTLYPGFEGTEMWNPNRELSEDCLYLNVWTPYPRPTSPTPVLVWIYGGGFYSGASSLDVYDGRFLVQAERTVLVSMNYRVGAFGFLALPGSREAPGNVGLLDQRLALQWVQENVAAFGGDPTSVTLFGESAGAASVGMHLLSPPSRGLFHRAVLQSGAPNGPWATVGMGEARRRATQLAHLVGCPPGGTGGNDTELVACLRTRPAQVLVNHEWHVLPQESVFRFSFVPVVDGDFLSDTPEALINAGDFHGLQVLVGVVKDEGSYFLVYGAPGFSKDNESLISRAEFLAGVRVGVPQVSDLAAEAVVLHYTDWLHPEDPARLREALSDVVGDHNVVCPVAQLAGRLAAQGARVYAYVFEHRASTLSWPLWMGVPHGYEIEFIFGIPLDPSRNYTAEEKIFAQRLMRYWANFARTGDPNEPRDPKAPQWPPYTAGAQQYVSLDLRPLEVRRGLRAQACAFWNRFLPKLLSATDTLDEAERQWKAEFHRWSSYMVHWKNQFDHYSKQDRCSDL

MDA-MB-435 [5] = test: Growth inhibition of human MDA-MB-435 cells measured for 48 hrs by SRB assay; assay type: functional
MDA-MB-435 [6] = test: Cytotoxicity against human MDA-MB-435 cells assessed as reduction in cell viability incubated for 48 hrs by SRB assay; assay type: functional, cell-based; details: MDA-MB-435, 48 h
HepG2 [7] = test: Antiproliferative activity against human HepG2 cells; assay type: functional, cell-based
A549 = test: Antiproliferative activity against human A549 cells; assay type: functional, cell-based
[8] = molecular target: Angiotensin-converting enzyme (Homo sapiens, UniProt P12821); test: Inhibition of ACE (unknown origin) using N-[3-(2-furyl)-acryloyl]- L -phenylalanylglycylglycin as substrate incubated for 5 mins
Sequence of Angiotensin-converting enzyme (P12821 whole entry): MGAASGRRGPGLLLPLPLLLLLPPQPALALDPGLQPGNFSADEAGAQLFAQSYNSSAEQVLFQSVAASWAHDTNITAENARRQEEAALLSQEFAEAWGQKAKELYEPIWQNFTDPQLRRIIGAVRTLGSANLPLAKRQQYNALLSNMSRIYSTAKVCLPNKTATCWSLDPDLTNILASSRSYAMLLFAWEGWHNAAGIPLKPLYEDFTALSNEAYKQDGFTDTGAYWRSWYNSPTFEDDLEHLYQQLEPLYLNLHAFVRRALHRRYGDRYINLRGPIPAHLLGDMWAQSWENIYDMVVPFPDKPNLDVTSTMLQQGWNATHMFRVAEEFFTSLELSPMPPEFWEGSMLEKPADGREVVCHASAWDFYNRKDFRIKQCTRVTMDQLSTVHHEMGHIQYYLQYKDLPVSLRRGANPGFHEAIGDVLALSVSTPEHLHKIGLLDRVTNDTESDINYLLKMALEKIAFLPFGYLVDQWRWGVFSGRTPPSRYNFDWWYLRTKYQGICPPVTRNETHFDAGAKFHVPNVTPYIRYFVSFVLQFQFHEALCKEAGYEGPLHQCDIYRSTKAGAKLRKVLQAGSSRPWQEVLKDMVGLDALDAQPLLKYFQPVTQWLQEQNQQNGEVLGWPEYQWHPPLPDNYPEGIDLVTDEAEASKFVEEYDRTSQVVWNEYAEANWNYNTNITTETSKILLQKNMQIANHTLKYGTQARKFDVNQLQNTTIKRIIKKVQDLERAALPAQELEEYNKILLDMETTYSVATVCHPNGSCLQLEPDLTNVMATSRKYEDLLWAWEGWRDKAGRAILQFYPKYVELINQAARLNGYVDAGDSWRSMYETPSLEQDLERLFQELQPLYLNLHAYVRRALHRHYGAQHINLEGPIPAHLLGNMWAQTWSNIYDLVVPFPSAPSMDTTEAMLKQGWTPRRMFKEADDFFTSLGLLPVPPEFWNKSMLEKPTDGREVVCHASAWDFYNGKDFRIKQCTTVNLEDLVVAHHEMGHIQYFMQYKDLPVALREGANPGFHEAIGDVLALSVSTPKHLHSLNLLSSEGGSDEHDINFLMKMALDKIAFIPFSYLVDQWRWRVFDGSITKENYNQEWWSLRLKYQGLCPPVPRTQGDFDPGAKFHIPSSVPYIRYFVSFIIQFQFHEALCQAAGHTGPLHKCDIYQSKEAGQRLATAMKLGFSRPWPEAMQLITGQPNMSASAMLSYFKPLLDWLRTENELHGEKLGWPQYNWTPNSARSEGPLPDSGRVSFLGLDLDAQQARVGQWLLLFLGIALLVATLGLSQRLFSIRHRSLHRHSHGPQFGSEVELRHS

Mythimna separata = test: Toxicity in Mythimna separata assessed as lethal dose; assay type: organism-based
HeLa = test: Growth inhibition of human HeLa cells measured for 48 hrs by SRB assay; assay type: functional
T47D = test: Growth inhibition of human T47D cells measured for 48 hrs by SRB assay; assay type: functional
WiDr = test: Growth inhibition of human WiDr cells measured for 48 hrs by SRB assay; assay type: functional

`C(=N\CCNCCC[Si-]123OCC[N+]1(CCO2)CCO3)/c1ccc2ccc3cccc4ccc1c2c34` (centres undefined) showed an IC50 (Giardia intestinalis) of 0.56 µM and an IC50 (Entamoeba histolytica) of 56.9 µM.

Work on `C[Si]1(C)CCN(C(=O)/C=C/C=C/c2ccc3c(c2)OCO3)CC1` yielded an MIC [1] of 50 µg/mL.

Work on `NCCC[Si-]123OCC[N+]1(CCO2)CCO3` (centres undefined) yielded an IC50 (MCF7) of 65 µg/mL (≈ 280 µM), an IC50 (HepG2 [2]) of 150 µg/mL (≈ 646 µM) and an MIC (Pseudomonas aeruginosa [3]) of 1.2 µg/mL (≈ 5.16 µM). It also gave an MIC (Penicillium chrysogenum) of 1.2 µg/mL (≈ 5.16 µM), an MIC (Fusarium solani) of 1.2 µg/mL (≈ 5.16 µM) and an MIC (Aspergillus niger) of 1.2 µg/mL (≈ 5.16 µM). It also gave an MIC (Bacillus sp.) of 1.2 µg/mL (≈ 5.16 µM).

For `CC(C)C(C)(C)[Si](C)(C)OC[C@H]1C[C@@H](n2cc(Br)c(=O)[nH]c2=O)C=C1CO`, the CC50 (BJAB) was 9 µM.

`C=C1C[C@](OC)([C@H](O)C(=O)N[C@H]2OCO[C@H]3[C@@H]2O[C@H](C[C@@H](CO)OC)C(C)(C)[C@@H]3OC)O[C@H](C)[C@@H]1C` [MYCALAMIDE B] showed an IC50 (P388) of 0.1 ng/mL (≈ 0.000193 µM).

`CCCC[Si](CC)(CCCC)OCC[N+](C)(C)C.[I-]` was tested, and the IC50 (HT-1080) was 3 µg/mL and the IC50 (MG-22A) was 1 µg/mL.

In the case of `O=C1c2ccccc2C(=O)N1CCC[Si-]123OCC[N+]1(CCO2)CCO3` (centres undefined), the MIC (Staphylococcus aureus) is reported as 0.2 µg/mL (≈ 0.552 µM), the MIC (Acinetobacter baumannii) is reported as 0.2 µg/mL (≈ 0.552 µM) and the MIC (Escherichia coli) is reported as 0.2 µg/mL (≈ 0.552 µM). It also gave an MIC (Pseudomonas aeruginosa [4]) of 0.2 µg/mL (≈ 0.552 µM).

Molecule `CC1C[N+]23CC(C)O[Si-]2(CCCNCC/N=C/c2ccc4ccc5cccc6ccc2c4c56)(O1)OC(C)C3` (centres undefined) has an IC50 (Giardia intestinalis) of 44.6 µM and an IC50 (Entamoeba histolytica) of 1.14 µM.

`CC1(C)CCN(C(=O)C2=CCCCC2)CC1` showed a Time (Aedes aegypti) of 520 min.

In the case of `C[Si]1(Cl)C=CC(=O)C1=P(c1ccccc1)(c1ccccc1)c1ccccc1` (centres undefined), the IC50 (Acetylcholinesterase) is reported as 0.113 µM.

For `CC[C@@]1(O)C(=O)OCc2c1cc1n(c2=O)Cc2c-1nc1ccc(O)cc1c2[Si](C)(C)C(C)(C)C` [AR-67], the GI50 (MDA-MB-435 [5]) was 0.021 µM and the IC50 (MDA-MB-435 [6]) was 0.014 µM.

`COc1ccc([Si](C)(C)[C@@H]2[C@@H](CCn3cc(CCO)nn3)O[C@]3(C(=O)N4c5c(ccc(OC)c53)C(C)=CC4(C)C)[C@H]2C)cc1` showed an EC50 (HepG2 [7]) of 32.5 µM and an EC50 (A549) of 42.8 µM.

Work on `C=C1C[C@](OC)([C@H](O)C(=O)N[C@H]2OCO[C@H]3[C@@H]2O[C@H](C[C@H](O)CO)C(C)(C)[C@@H]3OC)O[C@H](C)[C@@H]1C` [MYCALAMIDE A] yielded an IC50 (P388) of 0.1 ng/mL (≈ 0.000199 µM).

With `CC(C)CC(NC(=O)c1ccccc1)[Si](C)(O)CC(C)C(=O)N1CCC[C@H]1C(=O)O` (mixture of isomers) the IC50 [8] was 0.014 µM.

`C[Si](C)(C)c1cc(C(F)(C(F)(F)F)C(F)(F)F)cc(Br)c1NC(=O)c1cccc(NC(=O)c2ccccc2)c1` gave an LC50 (Mythimna separata) of 2 µg/mL (≈ 3.15 µM).

For `Cc1c(CN2CCN(C)CC2)cc(-c2ccc(Cl)cc2)n1-c1ccc(Cl)cc1`, the MIC [1] was 1.7 µM.

For `CCN(CC)C(=O)c1cccc(C)c1` [DIETHYLTOLUAMIDE], the Time (Aedes aegypti) was 616 min.

Molecule `C[Si]1(Cl)C=C/C(=N\c2ccccc2)C1=P(c1ccccc1)(c1ccccc1)c1ccccc1` (centres undefined) has an IC50 (Acetylcholinesterase) of 0.113 µM.

In the case of `CC1C[N+]23CC(C)O[Si-]2(CCCN2C(=O)c4ccccc4C2=O)(O1)OC(C)C3` (centres undefined), the MIC (Staphylococcus aureus) is reported as 0.2 µg/mL (≈ 0.494 µM), the MIC (Acinetobacter baumannii) is reported as 0.2 µg/mL (≈ 0.494 µM) and the MIC (Escherichia coli) is reported as 0.2 µg/mL (≈ 0.494 µM). It also gave an MIC (Pseudomonas aeruginosa [4]) of 0.2 µg/mL (≈ 0.494 µM).

With `CC(C)(C)[Si](Oc1ccc2oc(=O)ccc2c1)(c1ccccc1)c1ccccc1` the GI50 (HeLa) was 24.1 µM, the GI50 (T47D) was 26.6 µM and the GI50 (WiDr) was 32.2 µM.
